Reference: PMC8160969, “Organoruthenium Complexes with Benzo-Fused Pyrithiones Overcome Platinum Resistance in Ovarian Cancer Cells” (Cancers, 2021)

Molecular target: T1, thioredoxin reductase (TrxR) (Rattus norvegicus, UniProt O89049)
T1 construct: gene Txnrd1; commercially available rat liver TrxR
T1 sequence (O89049 1-499): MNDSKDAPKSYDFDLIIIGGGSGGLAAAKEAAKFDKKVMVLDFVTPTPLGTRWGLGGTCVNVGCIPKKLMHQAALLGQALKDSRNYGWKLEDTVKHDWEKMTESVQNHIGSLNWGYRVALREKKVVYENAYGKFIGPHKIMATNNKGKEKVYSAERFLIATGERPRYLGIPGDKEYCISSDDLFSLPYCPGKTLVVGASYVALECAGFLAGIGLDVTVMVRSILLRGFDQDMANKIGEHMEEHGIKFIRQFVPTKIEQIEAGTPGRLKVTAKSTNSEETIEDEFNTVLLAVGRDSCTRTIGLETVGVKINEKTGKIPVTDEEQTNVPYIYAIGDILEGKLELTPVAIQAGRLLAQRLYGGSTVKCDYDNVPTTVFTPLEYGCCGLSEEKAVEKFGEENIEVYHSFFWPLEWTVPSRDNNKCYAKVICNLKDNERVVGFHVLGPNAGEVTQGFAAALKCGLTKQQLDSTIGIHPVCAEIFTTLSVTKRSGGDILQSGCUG
Test: DTNB reduction assay with NADPH and rat liver TrxR, […] min exposure, absorbance at […] nm
Assay type: biochemical

`Cc1ccc(C(C)C)cc1.[Cl][Ru-]1[O]N2C=Cc3ccccc3C2=[S+]1` [1a, organoruthenium(II) chlorido complex 1a] gave an IC50 of 4.1 ± 0.16 µM.
